Key:
[1] = target: Serine/threonine-protein kinase STK11 (Homo sapiens) (UniProt Q15831); conditions: Compound concentration 1000.0 nM
[2] = target: 5-hydroxytryptamine receptor 1D (Homo sapiens) (UniProt P28221); conditions: Compound concentration 10.0 uM
[3] = target: Homeodomain-interacting protein kinase 1 (Homo sapiens) (UniProt Q86Z02); conditions: Compound concentration 1000.0 nM
[4] = target: Histamine H4 receptor (Homo sapiens) (UniProt Q9H3N8); conditions: Compound concentration 10.0 uM
[5] = target: Mitogen-activated protein kinase 8 (Homo sapiens) (UniProt P45983); conditions: Compound concentration 1000.0 nM
[6] = target: Serine/threonine-protein kinase WNK1 (Homo sapiens) (UniProt Q9H4A3); conditions: Compound concentration 1000.0 nM
[7] = system: Phosphatidylinositol 4,5-bisphosphate 3-kinase catalytic subunit alpha isoform (Homo sapiens), P42336 [E545A]; conditions: Compound concentration 1000.0 nM
[8] = target: Calcium/calmodulin-dependent protein kinase type 1D (Homo sapiens) (UniProt Q8IU85); conditions: Compound concentration 1000.0 nM
[9] = target: Serine/threonine-protein kinase PLK1 (Homo sapiens) (UniProt P53350); conditions: Compound concentration 1000.0 nM
[10] = target: Calcium/calmodulin-dependent protein kinase type II subunit delta (Homo sapiens) (UniProt Q13557); conditions: Compound concentration 1000.0 nM
Calcium/calmodulin-dependent protein kinase type II subunit delta (Homo sapiens), sequence (Q13557 whole entry): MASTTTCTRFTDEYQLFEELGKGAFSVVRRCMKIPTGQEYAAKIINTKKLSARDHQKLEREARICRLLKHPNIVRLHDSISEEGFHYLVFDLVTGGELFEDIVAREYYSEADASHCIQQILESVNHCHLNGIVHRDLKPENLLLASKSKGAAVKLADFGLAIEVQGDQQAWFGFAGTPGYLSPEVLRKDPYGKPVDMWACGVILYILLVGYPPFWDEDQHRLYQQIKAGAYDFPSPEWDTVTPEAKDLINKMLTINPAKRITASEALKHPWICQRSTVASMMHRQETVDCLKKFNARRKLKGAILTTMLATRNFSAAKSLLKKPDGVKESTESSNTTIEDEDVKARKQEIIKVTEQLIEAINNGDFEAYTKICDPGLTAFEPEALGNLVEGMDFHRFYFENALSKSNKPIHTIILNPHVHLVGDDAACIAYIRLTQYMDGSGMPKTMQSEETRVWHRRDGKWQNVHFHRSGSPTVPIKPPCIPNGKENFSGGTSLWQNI

[11] = target: Receptor-type tyrosine-protein kinase FLT3 (Homo sapiens) (UniProt P36888); conditions: Compound concentration 1000.0 nM
Receptor-type tyrosine-protein kinase FLT3 (Homo sapiens), sequence (P36888 whole entry): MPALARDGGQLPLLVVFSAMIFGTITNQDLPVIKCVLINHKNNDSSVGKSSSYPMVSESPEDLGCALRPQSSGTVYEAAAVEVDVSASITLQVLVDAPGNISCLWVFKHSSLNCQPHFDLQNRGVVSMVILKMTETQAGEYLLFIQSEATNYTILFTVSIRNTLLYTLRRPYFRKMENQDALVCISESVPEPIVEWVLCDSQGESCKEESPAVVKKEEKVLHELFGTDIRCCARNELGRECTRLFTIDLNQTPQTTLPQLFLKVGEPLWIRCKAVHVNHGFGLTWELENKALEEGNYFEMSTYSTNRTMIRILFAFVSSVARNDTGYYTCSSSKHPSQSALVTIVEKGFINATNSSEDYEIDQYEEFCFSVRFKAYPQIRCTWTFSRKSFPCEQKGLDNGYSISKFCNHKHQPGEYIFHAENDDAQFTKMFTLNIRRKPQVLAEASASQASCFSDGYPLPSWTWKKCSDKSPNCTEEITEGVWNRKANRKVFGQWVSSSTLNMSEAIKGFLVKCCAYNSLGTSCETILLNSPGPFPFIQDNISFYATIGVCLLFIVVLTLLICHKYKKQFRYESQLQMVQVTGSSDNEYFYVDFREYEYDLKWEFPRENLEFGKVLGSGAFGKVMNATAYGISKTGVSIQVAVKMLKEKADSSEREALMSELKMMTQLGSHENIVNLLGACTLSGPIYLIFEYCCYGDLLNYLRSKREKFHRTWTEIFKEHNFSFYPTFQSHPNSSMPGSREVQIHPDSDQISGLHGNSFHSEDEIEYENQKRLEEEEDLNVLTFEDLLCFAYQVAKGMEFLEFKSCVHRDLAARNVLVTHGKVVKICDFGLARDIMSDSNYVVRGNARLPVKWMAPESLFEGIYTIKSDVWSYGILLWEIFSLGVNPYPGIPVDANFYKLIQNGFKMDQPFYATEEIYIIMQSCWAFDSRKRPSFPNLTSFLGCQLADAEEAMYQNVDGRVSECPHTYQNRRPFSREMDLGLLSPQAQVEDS

[12] = target: Rho-associated protein kinase 1 (Homo sapiens) (UniProt Q13464); conditions: Compound concentration 1000.0 nM
[13] = target: Ephrin type-B receptor 1 (Homo sapiens) (UniProt P54762); conditions: Compound concentration 1000.0 nM
[14] = target: Serine/threonine-protein kinase Nek2 (Homo sapiens) (UniProt P51955); conditions: Compound concentration 1000.0 nM
[15] = target: Activin receptor type-2B (Homo sapiens) (UniProt Q13705); conditions: Compound concentration 1000.0 nM
[16] = target: D(2) dopamine receptor (Homo sapiens) (UniProt P14416); conditions: Compound concentration 10.0 uM
[17] = target: ALK tyrosine kinase receptor (Homo sapiens) (UniProt Q9UM73); conditions: Compound concentration 1000.0 nM
ALK tyrosine kinase receptor (Homo sapiens), sequence (Q9UM73 19-1620 limits assumed): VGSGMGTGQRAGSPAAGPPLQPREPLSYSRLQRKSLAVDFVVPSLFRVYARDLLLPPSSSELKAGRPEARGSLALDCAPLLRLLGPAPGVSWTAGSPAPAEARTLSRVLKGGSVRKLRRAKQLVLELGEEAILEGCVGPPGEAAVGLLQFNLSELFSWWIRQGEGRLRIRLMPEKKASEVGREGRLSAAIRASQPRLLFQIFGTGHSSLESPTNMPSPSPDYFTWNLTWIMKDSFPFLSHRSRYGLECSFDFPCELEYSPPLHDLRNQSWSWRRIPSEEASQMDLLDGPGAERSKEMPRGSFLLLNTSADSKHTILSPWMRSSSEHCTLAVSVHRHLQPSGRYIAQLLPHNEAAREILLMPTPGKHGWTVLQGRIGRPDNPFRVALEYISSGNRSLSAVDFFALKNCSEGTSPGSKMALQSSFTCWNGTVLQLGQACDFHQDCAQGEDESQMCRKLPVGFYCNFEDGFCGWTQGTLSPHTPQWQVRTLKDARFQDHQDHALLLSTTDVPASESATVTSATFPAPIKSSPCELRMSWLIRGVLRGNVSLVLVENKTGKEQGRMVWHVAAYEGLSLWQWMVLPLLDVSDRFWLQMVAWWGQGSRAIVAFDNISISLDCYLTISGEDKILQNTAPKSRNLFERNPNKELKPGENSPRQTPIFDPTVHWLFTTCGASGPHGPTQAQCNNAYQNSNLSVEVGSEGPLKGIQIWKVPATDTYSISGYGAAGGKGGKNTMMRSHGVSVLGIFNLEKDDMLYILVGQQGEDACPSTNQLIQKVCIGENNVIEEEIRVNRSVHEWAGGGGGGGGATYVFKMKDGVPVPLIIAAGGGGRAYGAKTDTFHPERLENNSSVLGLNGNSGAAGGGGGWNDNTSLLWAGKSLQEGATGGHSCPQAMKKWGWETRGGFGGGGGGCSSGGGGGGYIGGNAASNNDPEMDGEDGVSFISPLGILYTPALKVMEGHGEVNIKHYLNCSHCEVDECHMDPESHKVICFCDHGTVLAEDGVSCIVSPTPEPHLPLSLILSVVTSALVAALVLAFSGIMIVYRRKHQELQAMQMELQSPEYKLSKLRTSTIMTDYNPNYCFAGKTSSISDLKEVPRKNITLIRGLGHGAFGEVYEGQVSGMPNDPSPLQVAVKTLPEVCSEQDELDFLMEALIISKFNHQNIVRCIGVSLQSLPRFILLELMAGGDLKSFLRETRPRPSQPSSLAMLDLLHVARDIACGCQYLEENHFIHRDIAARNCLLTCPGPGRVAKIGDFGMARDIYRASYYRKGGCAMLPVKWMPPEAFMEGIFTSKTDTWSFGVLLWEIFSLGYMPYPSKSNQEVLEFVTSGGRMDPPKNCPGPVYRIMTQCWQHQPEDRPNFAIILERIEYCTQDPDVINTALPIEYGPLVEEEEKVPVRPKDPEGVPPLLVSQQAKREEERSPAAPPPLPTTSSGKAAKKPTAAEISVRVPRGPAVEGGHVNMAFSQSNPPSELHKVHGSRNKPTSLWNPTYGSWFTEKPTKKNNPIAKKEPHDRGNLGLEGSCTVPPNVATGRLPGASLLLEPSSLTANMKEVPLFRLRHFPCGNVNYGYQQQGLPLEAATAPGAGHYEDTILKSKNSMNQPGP

[18] = target: Sodium-dependent noradrenaline transporter (Homo sapiens) (UniProt P23975); conditions: Compound concentration 10.0 uM
Sodium-dependent noradrenaline transporter (Homo sapiens), sequence (P23975 whole entry): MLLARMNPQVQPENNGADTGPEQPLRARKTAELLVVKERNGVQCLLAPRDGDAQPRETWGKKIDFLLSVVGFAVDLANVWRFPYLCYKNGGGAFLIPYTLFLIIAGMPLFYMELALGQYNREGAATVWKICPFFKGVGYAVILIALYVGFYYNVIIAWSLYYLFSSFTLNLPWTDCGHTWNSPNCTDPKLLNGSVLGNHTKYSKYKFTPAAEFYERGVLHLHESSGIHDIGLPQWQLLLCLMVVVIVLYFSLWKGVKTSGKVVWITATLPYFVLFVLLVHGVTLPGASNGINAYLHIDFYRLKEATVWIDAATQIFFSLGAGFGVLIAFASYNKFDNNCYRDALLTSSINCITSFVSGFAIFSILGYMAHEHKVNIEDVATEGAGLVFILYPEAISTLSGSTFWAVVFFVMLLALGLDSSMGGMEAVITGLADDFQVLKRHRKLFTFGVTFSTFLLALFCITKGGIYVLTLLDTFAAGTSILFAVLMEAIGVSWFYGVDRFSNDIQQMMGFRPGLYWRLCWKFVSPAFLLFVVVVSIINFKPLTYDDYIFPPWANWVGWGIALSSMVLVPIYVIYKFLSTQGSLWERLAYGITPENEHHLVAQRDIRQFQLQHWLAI

[19] = target: Activated CDC42 kinase 1 (Homo sapiens) (UniProt Q07912); conditions: Compound concentration 1000.0 nM
[20] = target: Receptor-type tyrosine-protein kinase FLT3 (Homo sapiens) (UniProt P36888); conditions: Compound concentration 1000.0 nM; remark: listed apart in the source
[21] = target: Insulin receptor-related protein (Homo sapiens) (UniProt P14616); conditions: Compound concentration 1000.0 nM
[22] = target: Serine/threonine-protein kinase ULK1 (Homo sapiens) (UniProt O75385); conditions: Compound concentration 1000.0 nM
Serine/threonine-protein kinase ULK1 (Homo sapiens), sequence (O75385 whole entry): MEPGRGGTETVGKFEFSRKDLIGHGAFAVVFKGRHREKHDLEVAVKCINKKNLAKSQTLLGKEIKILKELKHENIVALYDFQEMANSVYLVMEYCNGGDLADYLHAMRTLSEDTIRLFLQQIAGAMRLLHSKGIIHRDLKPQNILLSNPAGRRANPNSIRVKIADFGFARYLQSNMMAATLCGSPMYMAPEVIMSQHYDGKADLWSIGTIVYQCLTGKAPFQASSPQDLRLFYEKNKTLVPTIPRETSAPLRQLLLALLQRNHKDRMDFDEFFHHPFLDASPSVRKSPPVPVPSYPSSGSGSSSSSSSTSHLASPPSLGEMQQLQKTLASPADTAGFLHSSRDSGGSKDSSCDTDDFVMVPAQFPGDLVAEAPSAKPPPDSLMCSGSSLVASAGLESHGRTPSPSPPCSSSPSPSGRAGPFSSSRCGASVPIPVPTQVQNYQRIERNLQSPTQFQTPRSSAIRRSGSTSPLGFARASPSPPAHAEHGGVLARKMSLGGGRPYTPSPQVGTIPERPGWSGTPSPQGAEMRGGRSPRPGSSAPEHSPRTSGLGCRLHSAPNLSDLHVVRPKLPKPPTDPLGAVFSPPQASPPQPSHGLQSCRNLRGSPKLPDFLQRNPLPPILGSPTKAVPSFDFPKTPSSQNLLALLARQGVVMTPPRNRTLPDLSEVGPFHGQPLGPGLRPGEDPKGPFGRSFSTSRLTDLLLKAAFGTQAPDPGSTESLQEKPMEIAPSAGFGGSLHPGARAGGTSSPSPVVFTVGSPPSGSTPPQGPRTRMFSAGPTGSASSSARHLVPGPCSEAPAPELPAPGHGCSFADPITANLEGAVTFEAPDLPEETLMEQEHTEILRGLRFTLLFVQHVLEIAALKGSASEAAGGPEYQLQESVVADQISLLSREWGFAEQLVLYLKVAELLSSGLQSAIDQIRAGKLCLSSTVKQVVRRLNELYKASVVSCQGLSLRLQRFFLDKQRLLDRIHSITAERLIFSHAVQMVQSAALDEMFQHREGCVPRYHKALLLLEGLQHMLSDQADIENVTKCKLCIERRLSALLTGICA

[23] = system: Tyrosine-protein kinase ABL1 (Homo sapiens), P00519 [F317I]; conditions: Compound concentration 1000.0 nM
[24] = target: MAP kinase-activated protein kinase 5 (Homo sapiens) (UniProt Q8IW41); conditions: Compound concentration 1000.0 nM
[25] = target: 5-hydroxytryptamine receptor 5A (Homo sapiens) (UniProt P47898); conditions: Compound concentration 10.0 uM
[26] = target: Phosphorylase b kinase regulatory subunit alpha, liver isoform (Homo sapiens) (UniProt P46019); conditions: Compound concentration 1000.0 nM
[27] = target: TRAF2 and NCK-interacting protein kinase (Homo sapiens) (UniProt Q9UKE5); conditions: Compound concentration 1000.0 nM
[28] = target: Alpha-2A adrenergic receptor (Homo sapiens) (UniProt P08913); conditions: Compound concentration 10.0 uM
[29] = target: Dual specificity protein kinase CLK2 (Homo sapiens) (UniProt P49760); conditions: Compound concentration 1000.0 nM
Rattus norvegicus = species: Rattus norvegicus; conditions: Compound concentration 10.0 uM
[30] = target: Cytoplasmic tyrosine-protein kinase BMX (Homo sapiens) (UniProt P51813); conditions: Compound concentration 1000.0 nM
[31] = target: Serine/threonine-protein kinase 33 (Homo sapiens) (UniProt Q9BYT3); conditions: Compound concentration 1000.0 nM
[32] = target: Serine/threonine-protein kinase RIO3 (Homo sapiens) (UniProt O14730); conditions: Compound concentration 1000.0 nM
[33] = target: Mitogen-activated protein kinase kinase kinase kinase 1 (Homo sapiens) (UniProt Q92918); conditions: Compound concentration 1000.0 nM
[34] = target: Mitogen-activated protein kinase kinase kinase kinase 3 (Homo sapiens) (UniProt Q8IVH8); conditions: Compound concentration 1000.0 nM
[35] = target: Cyclin-dependent kinase 16 (Homo sapiens) (UniProt Q00536); conditions: Compound concentration 1000.0 nM
[36] = target: Dual specificity mitogen-activated protein kinase kinase 5 (Homo sapiens) (UniProt Q13163); conditions: Compound concentration 1000.0 nM
[37] = target: Tyrosine-protein kinase BTK (Homo sapiens) (UniProt Q06187); conditions: Compound concentration 1000.0 nM
[38] = system: ALK tyrosine kinase receptor (Homo sapiens), Q9UM73 [C1156Y]; conditions: Compound concentration 1000.0 nM
[39] = target: Microtubule-associated serine/threonine-protein kinase 1 (Homo sapiens) (UniProt Q9Y2H9); conditions: Compound concentration 1000.0 nM
[40] = target: Phosphatidylinositol 5-phosphate 4-kinase type-2 beta (Homo sapiens) (UniProt P78356); conditions: Compound concentration 1000.0 nM
[41] = target: Tyrosine-protein kinase CSK (Homo sapiens) (UniProt P41240); conditions: Compound concentration 1000.0 nM
[42] = target: Serine/threonine-protein kinase 38-like (Homo sapiens) (UniProt Q9Y2H1); conditions: Compound concentration 1000.0 nM
[43] = target: Serine/threonine-protein kinase BRSK1 (Homo sapiens) (UniProt Q8TDC3); conditions: Compound concentration 1000.0 nM
[44] = target: 5-hydroxytryptamine receptor 2B (Homo sapiens) (UniProt P41595); conditions: Compound concentration 10.0 uM

O=C(O)[C@@H]1[C@@H](Cn2nnc3ccccc3c2=O)CC[C@H]1C(=O)c1ccc(OCCC2CCOCC2)cc1 [BAY-694]
inactive: residual activity [1] 94% | inhibition [2] 14% | residual activity [3] 91% | inhibition [4] 3.39% | residual activity [5] 100% | residual activity [6] 100% | residual activity [7] 100% | residual activity [8] 91% | residual activity [9] 80% | residual activity [10] 100% | residual activity [11] 86% | residual activity [12] 84% | residual activity [13] 100% | residual activity [14] 100% | residual activity [15] 100% | inhibition [16] -5.06% | residual activity [17] 100% | inhibition [18] -7.25% | residual activity [19] 100% | residual activity [20] 100% | residual activity [21] 100% | residual activity [22] 100% | residual activity [23] 100% | residual activity [24] 76% | inhibition [25] 1.33% | residual activity [26] 100% | residual activity [27] 93% | inhibition [28] 5.09% | residual activity [29] 100% | inhibition (Rattus norvegicus) 13.4% | residual activity [30] 100% | residual activity [31] 69% | residual activity [32] 100% | residual activity [33] 91% | residual activity [34] 100% | residual activity [35] 100% | residual activity [36] 73% | residual activity [37] 100% | residual activity [38] 100% | residual activity [39] 100% | residual activity [40] 81% | residual activity [41] 90% | residual activity [42] 100% | residual activity [43] 100% | inhibition [44] 36.2%

O=C(O)[C@H]1[C@H](Cn2nnc3ccccc3c2=O)CC[C@@H]1C(=O)c1ccc(OCCC2CCOCC2)cc1 [BAY-7598]
inactive: residual activity [1] 76% | inhibition [2] 4.82% | residual activity [3] 100% | inhibition [4] 1.99% | residual activity [5] 72% | residual activity [6] 100% | residual activity [7] 100% | residual activity [8] 96% | residual activity [9] 75% | residual activity [10] 86% | residual activity [11] 96% | residual activity [12] 87% | residual activity [13] 100% | residual activity [14] 100% | residual activity [15] 79% | inhibition [16] 30.3% | residual activity [17] 100% | inhibition [18] -0.42% | residual activity [19] 100% | residual activity [20] 99% | residual activity [21] 81% | residual activity [22] 95% | residual activity [23] 100% | residual activity [24] 99% | inhibition [25] 6.91% | residual activity [26] 100% | residual activity [27] 84% | inhibition [28] -5.14% | residual activity [29] 100% | inhibition (Rattus norvegicus) 9.67% | residual activity [30] 92% | residual activity [31] 98% | residual activity [32] 79% | residual activity [33] 87% | residual activity [34] 100% | residual activity [35] 98% | residual activity [36] 100% | residual activity [37] 100% | residual activity [38] 100% | residual activity [39] 98% | residual activity [40] 84% | residual activity [41] 100% | residual activity [42] 96% | residual activity [43] 78% | inhibition [44] 22.8%
